Data from the supplement of paper PMC4932681.
Where “and” joins values, the source holds several entries; their conditions need not be identical. Identical values can stand only once.

Experiments:
BT-474 Tam1 [1] = experiment: drug sensitivity score (DSS) (DSS (dimensionless)); higher = more sensitive; extreme values may be limits of the assay; details: 4-OH-tamoxifen in medium 1 µM; 72 h
Summary of the method: (§1)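 Breast cancer cell lines and their resistant derivatives were seeded into 384-well plates holding FO2Baq library drugs at five concentrations spanning a 10 000-fold range. Resistant lines were in medium with 1 μM of the selecting drug. Cells were incubated 72 h at 37 °C, and CellTiter-Glo viability was read on a PHERAstar and normalised to vehicle-only and positive controls. Drug sensitivity score, relative IC50 (curve midpoint) and top-dose inhibition came from logistic dose–response fits (Breeze pipeline).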

BT-474 Tam2 [2] = experiment: as above; details: 4-OH-tamoxifen in medium 1 µM; 72 h
Summary of the method: as §1

BT-474 [3] = experiment: as above; details: 72 h
Summary of the method: as §1

MCF-7 Tam1 [4] = experiment: as above; details: 4-OH-tamoxifen in medium 1 µM; 72 h
Summary of the method: as §1

MCF-7 [5] = experiment: as above; details: 72 h
Summary of the method: as §1

T-47D Tam1 [6] = experiment: as above; details: 4-OH-tamoxifen in medium 1 µM; 72 h
Summary of the method: as §1

T-47D Tam2 [7] = experiment: as above; details: 4-OH-tamoxifen in medium 1 µM; 72 h
Summary of the method: as §1

T-47D [8] = experiment: as above; details: 72 h
Summary of the method: as §1

ZR-75-1 Tam1 [9] = experiment: as above; details: 4-OH-tamoxifen in medium 1 µM; 72 h
Summary of the method: as §1

ZR-75-1 Tam2 [10] = experiment: as above; details: 4-OH-tamoxifen in medium 1 µM; 72 h
Summary of the method: as §1

ZR-75-1 [11] = experiment: as above; details: 72 h
Summary of the method: as §1

BT-474 Tam1 [12] = experiment: relative IC50 (midpoint of fitted logistic curve, plateau may be below 50% inhibition; CellTiter-Glo viability); higher = less potent; details: 4-OH-tamoxifen in medium 1 µM; 72 h
Summary of the method: as §1

BT-474 Tam2 [13] = experiment: as above; details: 4-OH-tamoxifen in medium 1 µM; 72 h
Summary of the method: as §1

BT-474 [14] = experiment: as above; details: 72 h
Summary of the method: as §1

MCF-7 Tam1 [15] = experiment: as above; details: 4-OH-tamoxifen in medium 1 µM; 72 h
Summary of the method: as §1

T-47D Tam1 [16] = experiment: as above; details: 4-OH-tamoxifen in medium 1 µM; 72 h
Summary of the method: as §1

T-47D Tam2 [17] = experiment: as above; details: 4-OH-tamoxifen in medium 1 µM; 72 h
Summary of the method: as §1

T-47D [18] = experiment: as above; details: 72 h
Summary of the method: as §1

ZR-75-1 Tam1 [19] = experiment: as above; details: 4-OH-tamoxifen in medium 1 µM; 72 h
Summary of the method: as §1

ZR-75-1 Tam2 [20] = experiment: as above; details: 4-OH-tamoxifen in medium 1 µM; 72 h
Summary of the method: as §1

ZR-75-1 [21] = experiment: as above; details: 72 h
Summary of the method: as §1

MCF-7 [22] = experiment: as above; details: 72 h
Summary of the method: as §1

Structure (SMILES)	drug sensitivity score (BT-474 Tam1 [1])	drug sensitivity score (BT-474 Tam2 [2])	drug sensitivity score (BT-474 [3]; 4-OH-tamoxifen in medium 0 µM)	drug sensitivity score (BT-474 [3]; 4-OH-tamoxifen in medium 1 µM)	drug sensitivity score (MCF-7 Tam1 [4])	drug sensitivity score (MCF-7 [5]; 4-OH-tamoxifen in medium 0 µM)	drug sensitivity score (MCF-7 [5]; 4-OH-tamoxifen in medium 1 µM)	drug sensitivity score (T-47D Tam1 [6])	drug sensitivity score (T-47D Tam2 [7])	drug sensitivity score (T-47D [8]; 4-OH-tamoxifen in medium 0 µM)	drug sensitivity score (T-47D [8]; 4-OH-tamoxifen in medium 1 µM)	drug sensitivity score (ZR-75-1 Tam1 [9])	drug sensitivity score (ZR-75-1 Tam2 [10])	drug sensitivity score (ZR-75-1 [11]; 4-OH-tamoxifen in medium 0 µM)	drug sensitivity score (ZR-75-1 [11]; 4-OH-tamoxifen in medium 1 µM)	relative IC50 (BT-474 Tam1 [12])	relative IC50 (BT-474 Tam2 [13])	relative IC50 (BT-474 [14]; 4-OH-tamoxifen in medium 0 µM)	relative IC50 (BT-474 [14]; 4-OH-tamoxifen in medium 1 µM)	relative IC50 (MCF-7 Tam1 [15])	relative IC50 (T-47D Tam1 [16])	relative IC50 (T-47D Tam2 [17])	relative IC50 (T-47D [18]; 4-OH-tamoxifen in medium 0 µM)	relative IC50 (T-47D [18]; 4-OH-tamoxifen in medium 1 µM)	relative IC50 (ZR-75-1 Tam1 [19])	relative IC50 (ZR-75-1 Tam2 [20])	relative IC50 (ZR-75-1 [21]; 4-OH-tamoxifen in medium 0 µM)	relative IC50 (ZR-75-1 [21]; 4-OH-tamoxifen in medium 1 µM)	relative IC50 (MCF-7 [22]; 4-OH-tamoxifen in medium 0 µM)	relative IC50 (MCF-7 [22]; 4-OH-tamoxifen in medium 1 µM)
Cc1cnc(NC(=O)Nc2cc(Br)c(C)cc2OC[C@@H]2CNCCO2)cn1	0	0	0	0	0	2.37	0.181	0	0	0	0	0	0	0	0	> 1 µM	> 1 µM	> 1 µM	> 1 µM	> 1 µM	> 1 µM	> 1 µM	> 1 µM	> 1 µM	> 1 µM	> 1 µM	> 1 µM	> 1 µM	–	–
Cc1cc2c(F)c(Oc3ncnn4cc(OC[C@@H](C)O)c(C)c34)ccc2[nH]1 [Brivanib]	0	0	0	0	0	0	0	0	0	0	0	0	0	0	0	–	> 1 µM	> 1 µM	> 1 µM	> 1 µM	> 1 µM	> 1 µM	> 1 µM	> 1 µM	> 1 µM	> 1 µM	> 1 µM	> 1 µM	> 1 µM	> 1 µM
COc1cc2c(Oc3ccc4[nH]c(C)cc4c3F)ncnc2cc1OCCCN1CCCC1 [Cediranib (AZD2171, Recentin)]	0.271	0	0	2.04	0	0.0072	0	0	0	0	0.609	0	0	0	0	–	> 1 µM	> 1 µM	0.304 µM	> 1 µM	> 1 µM	> 1 µM	> 1 µM	–	> 1 µM	> 1 µM	> 1 µM	> 1 µM	–	> 1 µM
Cc1nc(Nc2ncc(C(=O)Nc3c(C)cccc3Cl)s2)cc(N2CCN(CCO)CC2)n1 [Dasatinib]	2.9 and 1.26	–	0	0	0	–	–	8.54 and 7.6	8.11 and 4.97	0	–	0	0	0	0	0.13 µM and 0.374 µM	> 1 µM	> 1 µM	> 1 µM	> 1 µM	0.0103 µM and 0.0107 µM	0.00943 µM and 0.0164 µM	> 1 µM	0.0416 µM	> 1 µM	> 1 µM	> 1 µM	> 1 µM	> 1 µM	> 1 µM
Cc1cn(-c2cc(NC(=O)c3ccc(C)c(Nc4nccc(-c5cccnc5)n4)c3)cc(C(F)(F)F)c2)cn1 [Nilotinib]	1.63	0	0	0	0	0	0	0	0	0	0	0	0	0	0	–	> 10 µM	> 10 µM	> 10 µM	> 10 µM	> 10 µM	> 10 µM	> 10 µM	> 10 µM	> 10 µM	> 10 µM	> 10 µM	> 10 µM	> 10 µM	> 10 µM
C[C@]12C=CC(=O)C=C1CC[C@@H]1[C@@H]2[C@@H](O)C[C@@]2(C)[C@H]1CC[C@]2(O)C(=O)CO [Prednisolone]	0	0	0	0	0	0.324	0.407	0	0	0	0	0	0	0	0	> 10 µM	> 10 µM	> 10 µM	> 10 µM	> 10 µM	> 10 µM	> 10 µM	> 10 µM	> 10 µM	> 10 µM	> 10 µM	> 10 µM	> 10 µM	–	–
CNC(=O)c1cc(Oc2ccc(NC(=O)Nc3ccc(Cl)c(C(F)(F)F)c3)cc2)ccn1 [Sorafenib]	0.0104	0	0	0	0	0	0	0	0	0	0	0	0	0	0	–	> 1 µM	> 1 µM	> 1 µM	> 1 µM	> 1 µM	> 1 µM	> 1 µM	> 1 µM	> 1 µM	> 1 µM	> 1 µM	> 1 µM	> 1 µM	> 1 µM
Cn1nnc2c(C(N)=O)ncn2c1=O [Temozolomide]	0.313	0	0	0	0	0	0	0	0	0	0	0	0	0.0165	0	–	> 10 µM	> 10 µM	> 10 µM	> 10 µM	> 10 µM	> 10 µM	> 10 µM	> 10 µM	> 10 µM	> 10 µM	–	> 10 µM	> 10 µM	> 10 µM
